US11999727B2 (Tango Therapeutics, Inc., priority 2020, dated 2024)

Tests used:
PRMT5 [1] = biological target: T1, PRMT5 (Homo sapiens, UniProt O14744); assay: PRMT5 biochemical IC50 assay with MTA as cofactor; conditions: PRMT5, MTA as cofactor; read-out: MTA IC50
T1 construct: purchased Viva (custom protein)

[2] = tested on: HAP1 MTAP-deleted cell line; assay: SDMA in-cell western assay, HAP1 MTAP-deleted; type: cell-based; conditions: for IC50: Homo sapiens, HAP1, SDMA in-cell western, HAP1 MTAP-deleted, read-out: HAP1 MTAP deleted IC50; for MTAP intact/deleted ratio: IC50 ratio HAP1 MTAP-intact / HAP1 MTAP-deleted, SDMA in-cell western
Procedure, shortened: (§1)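 Isogenic HAP1 pair: the MTAP-intact line expresses endogenous MTAP, and the deleted line is MTAP-null. Symmetric dimethylarginine was detected by in-cell western and IC50 values derived for each line.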

[3] = tested on: HAP1 MTAP-intact cell line; assay: SDMA in-cell western assay, HAP1 MTAP-intact; type: cell-based; conditions: Homo sapiens, HAP1, SDMA in-cell western, HAP1 MTAP-intact; read-out: MTAP HAP1 intact IC50
Procedure, shortened: as §1

PRMT5 [4] = biological target: T1, PRMT5; assay: PRMT5 biochemical IC50 assay with no cofactor; conditions: PRMT5, no cofactor; read-out: No Cofactor/rel IC50
Excerpt: Table 1 indicates IC50 values (μM) against PRMT5 for exemplary compounds in the presence of SAM as cofactor, with no cofactor, and with MTA as cofactor, respectively (columns 4-6). […] Ki values can be calculated from the IC50 values as described in the Examples section. As detailed in the Examples section, for the assay performed in the presence of SAM, IC50=Ki×1.5 (Ki=IC50/1.5).

PRMT5 [5] = biological target: T1, PRMT5; assay: PRMT5 biochemical IC50 assay with SAM as cofactor; conditions: PRMT5, SAM as cofactor; read-out: SAM IC50
[6] = tested on: HAP1 MTAP-deleted cell line; assay: Viability assay, MTAP-deleted cell line; type: cell-based; conditions: Homo sapiens, HAP1, viability assay, MTAP-deleted cell line; read-out: HAP1 MTAP deleted viability
Excerpt: Table 1 additionally indicates IC50 values in a viability assay for the MTAP-deleted cell line (column 10), indicating the effect of treatment with compound on cell survival.

T1 sequence (O14744 whole entry): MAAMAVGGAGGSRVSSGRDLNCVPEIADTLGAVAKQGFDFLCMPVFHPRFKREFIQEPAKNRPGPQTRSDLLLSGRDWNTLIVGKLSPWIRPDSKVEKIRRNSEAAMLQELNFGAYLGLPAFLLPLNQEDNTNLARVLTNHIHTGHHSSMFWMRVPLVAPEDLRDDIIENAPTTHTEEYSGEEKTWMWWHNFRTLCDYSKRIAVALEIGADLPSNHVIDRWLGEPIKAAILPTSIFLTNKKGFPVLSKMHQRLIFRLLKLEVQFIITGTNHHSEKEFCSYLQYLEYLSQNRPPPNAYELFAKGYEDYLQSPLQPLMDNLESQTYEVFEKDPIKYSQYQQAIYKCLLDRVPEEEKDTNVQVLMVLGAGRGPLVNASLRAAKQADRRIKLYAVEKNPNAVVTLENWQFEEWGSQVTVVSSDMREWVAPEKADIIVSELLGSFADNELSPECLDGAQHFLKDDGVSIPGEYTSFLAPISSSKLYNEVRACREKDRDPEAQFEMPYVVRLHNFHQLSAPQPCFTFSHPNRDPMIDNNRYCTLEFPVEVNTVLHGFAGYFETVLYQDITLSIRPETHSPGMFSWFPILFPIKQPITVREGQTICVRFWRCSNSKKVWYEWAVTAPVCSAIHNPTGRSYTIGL
T1 sequence (Q9BQA1 whole entry partner): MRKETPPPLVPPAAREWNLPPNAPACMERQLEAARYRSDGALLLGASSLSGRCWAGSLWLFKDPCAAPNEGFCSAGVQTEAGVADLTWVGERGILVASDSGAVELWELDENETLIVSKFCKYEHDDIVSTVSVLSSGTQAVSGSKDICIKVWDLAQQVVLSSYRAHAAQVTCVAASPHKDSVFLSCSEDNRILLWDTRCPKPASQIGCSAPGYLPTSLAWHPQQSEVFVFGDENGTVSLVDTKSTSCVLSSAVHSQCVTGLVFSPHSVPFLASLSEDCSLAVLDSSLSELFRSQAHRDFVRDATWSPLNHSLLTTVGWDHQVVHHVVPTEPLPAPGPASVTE

Row | IC50 (PRMT5 [1]) [nM] | IC50 [2] [nM] | IC50 [3] [nM] | IC50 (PRMT5 [4]) [nM] | IC50 (PRMT5 [5]) [nM] | Structure (SMILES) | MTAP intact/deleted ratio [2] | IC50 [6] [nM]
1 | 50 to 500 | 100 to 1000 | > 1000 | 50 to 500 | > 500 | C[C@@H]1CC[C@@H](c2ccc(N3CCCC3)nc2)N(C(=O)C(=O)Nc2cncc(C(N)=O)c2)C1 (racemic) [Compound 207, rac-5-{2-[(2R,5S)-5-methyl-2-[6-(pyrrolidin-1-yl)pyridin-3-yl]piperidin-1-yl]-2-oxoacetamido}pyridine-3-carboxamide] | A (an IC50 ratio greater than or equal to 10 fold) | 1000 to 10000
2 | < 50 | 100 to 1000 | > 1000 | 50 to 500 | 50 to 500 | COc1ccc([C@@H]2CC[C@@H](C)CN2C(=O)C(=O)Nc2cncc(C(N)=O)c2)cc1F (racemic) [Compound 208, rac-5-{2-[(2R,5S)-2-(3-Fluoro-4-methoxyphenyl)-5-methylpiperidin-1-yl]-2-oxoacetamido}pyridine-3-carboxamide] | A (an IC50 ratio greater than or equal to 10 fold) | 1000 to 10000
3 | < 50 | < 100 | > 1000 | 50 to 500 | 50 to 500 | CNc1ccc([C@@H]2CC[C@@H](C)CN2C(=O)C(=O)Nc2cncc(C(N)=O)c2)cn1 (racemic) [Compound 209, rac-5-{2-[(2R,5S)-5-Methyl-2-[6-(methylamino)pyridin-3-yl]piperidin-1-yl]-2-oxoacetamido}pyridine-3-carboxamide] | A (an IC50 ratio greater than or equal to 10 fold) | 1000 to 10000
4 | < 50 | < 100 | > 1000 | 50 to 500 | 50 to 500 | C[C@@H]1CC[C@@H](c2ccc(Cl)cc2)N(C(=O)C(=O)Nc2cncc(C(N)=O)c2)C1 (racemic) [Compound 212, rac-5-[[2-[(2S,5R)-2-(4-chlorophenyl)-5-methyl-1-piperidyl]-2-oxo-acetyl]amino]pyridine-3-carboxamide] | A (an IC50 ratio greater than or equal to 10 fold) | 1000 to 10000
5 | < 50 | 100 to 1000 | > 1000 | 50 to 500 | 50 to 500 | C[C@@H]1CC[C@@H](c2ccc(CN3CCOCC3)cc2)N(C(=O)C(=O)Nc2cncc(C(N)=O)c2)C1 (racemic) [Compound 213] | A (an IC50 ratio greater than or equal to 10 fold) | > 10000
6 | < 50 | < 100 | > 1000 | 50 to 500 | 50 to 500 | COc1cccc([C@@H]2CC[C@@H](C)CN2C(=O)C(=O)Nc2cncc(C(N)=O)c2)c1 (racemic) [Compound 214, rac-5-{2-[(2R,5S)-2-(3-Methoxyphenyl)-5-methylpiperidin-1-yl]-2-oxoacetamido}pyridine-3-carboxamide] |  | 1000 to 10000
7 | 50 to 500 | > 1000 | > 1000 | > 500 | > 500 | Cc1cccc2cc([C@@H]3CC[C@@H](C)CN3C(=O)C(=O)Nc3cncc(C(N)=O)c3)cnc12 (racemic) [Compound 215, rac-5-{2-[(2R,5S)-5-Methyl-2-(8-methylquinolin-3-yl)piperidin-1-yl]-2-oxoacetamido}pyridine-3-carboxamide] | B (an IC50 ratio greater than or equal to 3 fold but lower than 10 fold) | > 10000
8 | < 50 | < 100 | > 1000 | 50 to 500 | 50 to 500 | Cc1cnn(-c2ccc([C@@H]3CC[C@@H](C)CN3C(=O)C(=O)Nc3cncc(C(N)=O)c3)cc2)c1 (racemic) [Compound 218, rac-5-{2-[(2R,5S)-5-Methyl-2-[4-(4-methyl-11H-pyrazol-1-yl)phenyl]piperidin-1-yl]-2-oxoacetamido}pyridine-3-carboxamide] | A (an IC50 ratio greater than or equal to 10 fold) | 1000 to 10000
9 | < 50 | 100 to 1000 | > 1000 | 50 to 500 | 50 to 500 | C[C@@H]1CC[C@@H](c2ccc(C(N)=O)cc2)N(C(=O)C(=O)Nc2cncc(C(N)=O)c2)C1 (racemic) [Compound 220, rac-5-{2-[(2R,5S)-2-(4-Carbamoylphenyl)-5-methylpiperidin-1-yl]-2-oxoacetamido}pyridine-3-carboxamide] | A (an IC50 ratio greater than or equal to 10 fold) | > 10000
10 | 50 to 500 | 100 to 1000 | > 1000 | 50 to 500 | 50 to 500 | C[C@@H]1CC[C@@H](c2ccnc(C(F)(F)F)c2)N(C(=O)C(=O)Nc2cncc(C(N)=O)c2)C1 (racemic) [Compound 221, rac-5-{2-[(2R,5S)-5-Methyl-2-[2-(trifluoromethyl)pyridin-4-yl]piperidin-1-yl]-2-oxoacetamido}pyridine-3-carboxamide] | A (an IC50 ratio greater than or equal to 10 fold) | > 10000
11 | < 50 | 100 to 1000 | > 1000 | 50 to 500 | 50 to 500 | COc1cc([C@@H]2CC[C@@H](C)CN2C(=O)C(=O)Nc2cncc(C(N)=O)c2)ccc1F (racemic) [Compound 222, rac-5-{2-[(2R,5S)-2-(4-Fluoro-3-methoxyphenyl)-5-methylpiperidin-1-yl]-2-oxoacetamido}pyridine-3-carboxamide] | A (an IC50 ratio greater than or equal to 10 fold) | 1000 to 10000
12 | 50 to 500 | > 1000 | > 1000 | > 500 | > 500 | COc1cc([C@@H]2CC[C@@H](C)CN2C(=O)C(=O)Nc2cncc(C(N)=O)c2)cnc1C(F)(F)F (racemic) [Compound 223, rac-5-{2-[(2R,5S)-2-[5-Methoxy-6-(trifluoromethyl)pyridin-3-yl]-5-methylpiperidin-1-yl]-2-oxoacetamido}pyridine-3-carboxamide] | C (an IC50 ratio of less than 3 fold) | > 10000
13 | < 50 | < 100 | > 1000 | 50 to 500 | 50 to 500 | C[C@@H]1CC[C@@H](c2ccc(N)nc2)N(C(=O)C(=O)Nc2cncc(C(N)=O)c2)C1 (racemic) [Compound 224, rac-5-{2-[(2R,5S)-2-(6-Aminopyridin-3-yl)-5-methylpiperidin-1-yl]-2-oxoacetamido}pyridine-3-carboxamide] | A (an IC50 ratio greater than or equal to 10 fold) | 1000 to 10000
14 | 50 to 500 | < 100 | > 1000 | 50 to 500 | 50 to 500 | COc1cc([C@@H]2CC[C@@H](C)CN2C(=O)C(=O)Nc2cncc(C(N)=O)c2)ccn1 (racemic) [Compound 225, rac-5-{2-[(2R,5S)-2-(2-Methoxypyridin-4-yl)-5-methylpiperidin-1-yl]-2-oxoacetamido}pyridine-3-carboxamide] | A (an IC50 ratio greater than or equal to 10 fold) | 1000 to 10000
15 | 50 to 500 | > 1000 | > 1000 | > 500 | 50 to 500 | C[C@@H]1CC[C@@H](c2cncc(-n3cccn3)c2)N(C(=O)C(=O)Nc2cncc(C(N)=O)c2)C1 (racemic) [Compound 226, rac-5-{2-[(2R,5S)-5-Methyl-2-[5-(1H-pyrazol-1-yl)pyridin-3-yl]piperidin-1-yl]-2-oxoacetamido}pyridine-3-carboxamide] | C (an IC50 ratio of less than 3 fold) | > 10000
16 | 50 to 500 | 100 to 1000 | > 1000 | 50 to 500 | 50 to 500 | COc1ccc([C@@H]2CC[C@@H](C)CN2C(=O)C(=O)Nc2cncc(C(N)=O)c2)cc1 (racemic) [Compound 228, rac-5-{2-[(2R,5S)-2-(4-Methoxyphenyl)-5-methylpiperidin-1-yl]-2-oxoacetamido}pyridine-3-carboxamide] | A (an IC50 ratio greater than or equal to 10 fold) | 1000 to 10000
17 | 50 to 500 | > 1000 | > 1000 | > 500 | > 500 | C[C@@H]1C[C@H](c2ccccc2)N(C(=O)C(=O)Nc2cncc(C(N)=O)c2)C[C@@H]1C (racemic) [Compound 229, 5-[[2-[(2S,4S,5S)-4,5-dimethyl-2-phenyl-1-piperidyl]-2-oxo-acetyl]amino]pyridine-3-carboxamide] | B (an IC50 ratio greater than or equal to 3 fold but lower than 10 fold) | > 10000
